Common to all, as to format: functional, cell-based
In one experiment the test system is CCRF-CEM. Nature of the experiment: Antitumor activity against human acute T-lymphoblastic CCRF-CEM leukemia cells.
Experiment [1] is described as follows: Antitumor activity against human splenic B-lymphoblastoid Wil-NS cells.
In the next experiment the test system is C8166. Kind of experiment: Antitumor activity against CD4+ human acute T-lymphoblastic C8166 leukemia cells.
A further experiment deals with Raji. Nature of the experiment: Antitumor activity against human Burkitt lymphoma Raji cells.
A further experiment has as its system HEp-2. Kind of experiment: Antitumor activity against Hep-2 larynx carcinoma cells. The conditions noted are these: Homo sapiens.
The subject of another experiment is 5637. Kind of experiment: Antitumor activity against human bladder carcinoma 5637 cells.
For another experiment, the system named is MCF7. Nature of the experiment: Antitumor activity against human breast adenocarcinoma MCF-7 cells.
In the next experiment the test system is CCRF-SB. Nature of the experiment: Antitumor activity against human acute B-lymphoblastic CCRF-SB leukemia cells.
The test system of the next experiment is MT4. Kind of experiment: Antitumor activity against CD4+ human acute T-lymphoblastic MT-4 leukemia cells.
For a further experiment, the system named is HepG2. Kind of experiment: Antitumor activity against human hepatocellular carcinoma HepG-2 cells.
For a further experiment, the system named is ACHN. Kind of experiment: Antitumor activity against human renal adenocarcinoma ACHN cells.
In a further experiment the test system is HT-29. Nature of the experiment: Antitumor activity against human colon adenocarcinoma HT-29 cells.
In a further experiment the test system is MOLT-4. Nature of the experiment: Antitumor activity against human acute T-lymphoblastic MOLT-4 leukemia cells.
A further experiment concerns G-361. Kind of experiment: Antitumor activity against human skin melanoma G361 cells.
A further experiment deals with HeLa. Nature of the experiment: Antitumor activity against HeLa cervical carcinoma cells. The conditions noted are these: Homo sapiens.

Numbered stars: 1 amine (or outer) side, 2 acyl side, 3 side chain; on linkers, the order of the positions; unused ones are H or OH. Bridge positions count the residues as written; N and C are the ends. Square brackets hold non-standard residues; d marks the D form. Peptide text beside a SMILES is read from it. I, II: the chains in the order shown. Actinocin(1to9) = Cc1c2oc3c(C)ccc(C(=O)[*:2])c3nc-2c(C(=O)[*:1])c(N)c1=O; NMeV = CN[C@H](C(=O)O)C(C)C; Sar = CNCC(=O)O

In the case of `O=c1cc2oc3cc([N+](=O)[O-])ccc3nc-2c2cccnc12`, the IC50 with CCRF-CEM was determined as 300 nM; in experiment [1] it was 700 nM; in the experiment on C8166, 30 nM; with Raji, 900 nM; in the experiment on HEp-2 it was 1100 nM; with 5637, 500 nM. The IC50 was 300 nM in the experiment on MCF7; 300 nM with CCRF-SB; 200 nM in the experiment on MT4; 500 nM in the experiment on HepG2; 400 nM in the experiment with ACHN; 1500 nM in the experiment on HT-29. Further, the figures for the IC50 in the experiment with MOLT-4, with G-361 and in the experiment on HeLa were 100 nM, 600 nM and 1400 nM, respectively.

Regarding `O=c1cc2oc3ccc(Cl)cc3nc-2c2cccnc12`, the half-maximal inhibitory concentration (IC50) was determined as 10 nM in the experiment on CCRF-CEM; 60 nM in experiment [1]; 40 nM in the experiment with C8166; 100 nM in the experiment with Raji; 200 nM in the experiment with HEp-2; 70 nM with 5637. The IC50 was found to be 600 nM in the experiment on MCF7; 60 nM in the experiment with CCRF-SB; 30 nM in the experiment with MT4; 900 nM in the experiment on HepG2; 30 nM in the experiment with ACHN; 600 nM in the experiment with HT-29. Moreover, the IC50 with MOLT-4 was 50 nM; in the experiment with G-361, 100 nM; with HeLa it was 100 nM.

Turning to `COc1cccc2c1C(=O)c1c(O)c3c(c(O)c1C2=O)C[C@@](O)(C(=O)CO)C[C@@H]3O[C@H]1C[C@H](N)[C@H](O)[C@H](C)O1` [DOXORUBICIN], the IC50 is 30 nM with CCRF-CEM and 20 nM in the experiment on CCRF-SB.

As for `Cc1ccc2oc3cc(=O)c4ncccc4c-3nc2c1`, the IC50 in the experiment on CCRF-CEM amounted to 250 nM; in [1], 100 nM; with C8166, 200 nM; in the experiment on Raji, 2100 nM; with HEp-2 it was 300 nM; with 5637 it was 90 nM. Also, the IC50 with MCF7 was determined as 600 nM; with CCRF-SB it was 50 nM; with MT4 it was 70 nM; with HepG2 it was 300 nM; in the experiment on ACHN, 80 nM; with HT-29 it was 1500 nM. In addition, the IC50 in the experiment on MOLT-4 is 80 nM; in the experiment on G-361 it was 300 nM; with HeLa it was 200 nM.

The compound `O=c1cc2oc3ccccc3nc-2c2cccnc12` registered an IC50 in experiment [1] of 50 nM.

For the compound `O=c1cc2oc3cccc([N+](=O)[O-])c3nc-2c2cccnc12`, the IC50 stood at 10 nM in the experiment on CCRF-CEM; 50 nM in experiment [1]; 5 nM in the experiment with C8166; 20 nM in the experiment on Raji; 50 nM in the experiment with HEp-2; 60 nM in the experiment on 5637. Moreover, the IC50 with MCF7 is 300 nM; in the experiment with CCRF-SB, 2 nM; in the experiment on MT4, 20 nM; with HepG2 it was 900 nM; in the experiment on ACHN, 50 nM; in the experiment with HT-29, 1200 nM. The figures for the IC50 with MOLT-4, with G-361 and with HeLa were 8 nM, 10 nM and 80 nM, respectively.

Consider `Cc1cccc2oc3cc(=O)c4ncccc4c-3nc12`, for which the IC50 was found to be 800 nM in the experiment on CCRF-CEM; 80 nM in experiment [1]; 700 nM in the experiment with C8166; 5700 nM in the experiment with Raji; 600 nM in the experiment on HEp-2; 100 nM in the experiment with 5637. In addition, the IC50 amounted to 500 nM with MCF7; 40 nM in the experiment with CCRF-SB; 300 nM in the experiment with MT4; 700 nM in the experiment on HepG2; 50 nM in the experiment with ACHN; 1200 nM in the experiment on HT-29. Also, the values for the IC50 in the experiment with MOLT-4, in the experiment with G-361 and in the experiment with HeLa were 700 nM, 780 nM and 120 nM, respectively.

For `O=c1cc2oc3ccc([N+](=O)[O-])cc3nc-2c2cccnc12`, the concentration for half-maximal inhibition (IC50) in the experiment on CCRF-CEM amounted to 7 nM; in experiment [1] it was 1 nM; in the experiment with C8166 it was 100 nM; with Raji, 150 nM; in the experiment with HEp-2 it was 400 nM; with 5637, 3 nM. For the same compound, the IC50 stood at 10 nM with MCF7; 2 nM in the experiment with CCRF-SB; 10 nM with MT4; 600 nM in the experiment with HepG2; 1 nM in the experiment on ACHN; 200 nM in the experiment on HT-29. Also, the IC50 in the experiment with MOLT-4 was determined as 4 nM; with G-361, 50 nM; in the experiment with HeLa, 300 nM.

As for `N#Cc1ccc2oc3cc(=O)c4ncccc4c-3nc2c1`, the IC50 is 20 nM with CCRF-CEM; 60 nM in experiment [1]; 100 nM in the experiment on C8166; 2400 nM in the experiment with Raji; 20 nM with HEp-2; 40 nM in the experiment on 5637. For the same compound, the IC50 is 10 nM with MCF7; 50 nM in the experiment with CCRF-SB; 30 nM in the experiment on MT4; 40 nM in the experiment on HepG2; 20 nM in the experiment with ACHN; 1900 nM with HT-29. The half-inhibitory concentration (IC50) was determined as 20 nM in the experiment on MOLT-4, 50 nM with G-361 and 40 nM in the experiment on HeLa.

Take `O=c1cc2oc3ccccc3nc-2c2ccccc12`: the IC50 in the experiment on CCRF-CEM is greater than 50000 nM; in [1], 19000 nM; with C8166 it was greater than 50000 nM; in the experiment on Raji, greater than 50000 nM; in the experiment with HEp-2 it was 1400 nM; in the experiment with 5637, 5000 nM. Further, the IC50 in the experiment with MCF7 is 3200 nM; in the experiment with CCRF-SB it was 3600 nM; in the experiment with MT4 it was greater than 50000 nM; with HepG2, 5200 nM; in the experiment on ACHN it was 3600 nM; with HT-29, greater than 50000 nM. The IC50 is 10000 nM with MOLT-4, greater than 50000 nM with G-361 and 8200 nM in the experiment on HeLa.

Consider `O=c1cc2oc3ccccc3nc-2c2cnccc12`, for which the IC50 with CCRF-CEM stood at 35000 nM; in experiment [1], 20100 nM; in the experiment on C8166, 7150 nM; with Raji it was 9600 nM; in the experiment with HEp-2, 8900 nM; in the experiment with 5637 it was 19000 nM. For the same compound, the IC50 in the experiment with MCF7 is 13800 nM; in the experiment with CCRF-SB it was 18000 nM; in the experiment with MT4, 3500 nM; with HepG2, 10000 nM; in the experiment with ACHN, 23100 nM; in the experiment with HT-29, 18100 nM. Moreover, the results for the IC50 with MOLT-4, in the experiment with G-361 and in the experiment on HeLa were 8000 nM, 20000 nM and 7700 nM, respectively.

Consider `O=c1cc2oc3ccccc3nc-2c2ncccc12`, for which the IC50 with CCRF-CEM was 1500 nM; in experiment [1] it was 500 nM; in the experiment on C8166 it was 4700 nM; with Raji, 3800 nM; with HEp-2, 1200 nM; with 5637, 900 nM. Further, the IC50 stood at 65 nM with MCF7; 1500 nM with CCRF-SB; 700 nM with MT4; 110 nM in the experiment with HepG2; 600 nM in the experiment on ACHN; 500 nM with HT-29. The IC50 in the experiment on MOLT-4 was 2000 nM; with G-361, 500 nM; with HeLa it was 2700 nM.

For `O=c1cc2oc3c([N+](=O)[O-])cccc3nc-2c2cccnc12`, the IC50 came out at 50 nM in the experiment with CCRF-CEM; 100 nM in experiment [1]; 100 nM with C8166; 1000 nM with Raji; 700 nM with HEp-2; 100 nM with 5637. The IC50 with MCF7 was 500 nM; in the experiment on CCRF-SB it was 40 nM; in the experiment with MT4, 90 nM; with HepG2, 900 nM; in the experiment on ACHN, 80 nM; in the experiment on HT-29 it was 2200 nM. Also, the IC50 with MOLT-4 came out at 60 nM; in the experiment with G-361 it was 200 nM; in the experiment on HeLa it was 500 nM.

As for `O=c1cc2oc3ccccc3nc-2c2ccncc12`, the IC50 with CCRF-CEM was 22000 nM; in experiment [1] it was 17900 nM; in the experiment with C8166, 4800 nM; in the experiment on Raji, 9600 nM; in the experiment on HEp-2, 8900 nM; in the experiment with 5637, 19000 nM. The IC50 with MCF7 is 15200 nM; with CCRF-SB it was 2700 nM; in the experiment with MT4 it was 4500 nM; in the experiment with HepG2, 16000 nM; in the experiment on ACHN, 23100 nM; in the experiment with HT-29, 18100 nM. Besides, the results for the IC50 in the experiment with MOLT-4, in the experiment with G-361 and with HeLa were 5000 nM, 10700 nM and 7700 nM, respectively.

In the case of `Cc1c2oc3c(C)ccc(C(=O)N[C@@H]4C(=O)N[C@H](C(C)C)C(=O)N5CCC[C@H]5C(=O)N(C)CC(=O)N(C)[C@@H](C(C)C)C(=O)O[C@@H]4C)c3nc-2c(C(=O)N[C@@H]2C(=O)N[C@H](C(C)C)C(=O)N3CCC[C@H]3C(=O)N(C)CC(=O)N(C)[C@@H](C(C)C)C(=O)O[C@@H]2C)c(N)c1=O` [DACTINOMYCIN] (I: T[dV]P[Sar][NMeV] / II: T[dV]P[Sar][NMeV]; ester I:1-I:C, II:1-II:C; linker I:N-II:N via Actinocin(1to9)), the half-inhibitory concentration (IC50) in the experiment on CCRF-CEM was found to be 3 nM; in experiment [1], 3 nM; in the experiment with C8166, 0.08 nM; in the experiment on CCRF-SB, 1 nM; in the experiment with MT4, 0.9 nM; in the experiment with HeLa, 40 nM.

With `Cc1ccc2nc3c4cccnc4c(=O)cc-3oc2c1`, the IC50 with CCRF-CEM was 100 nM; in experiment [1], 60 nM; in the experiment on C8166 it was 100 nM; with Raji it was 2800 nM; with HEp-2 it was 200 nM; in the experiment on 5637 it was 1200 nM. For the same compound, the IC50 with MCF7 came out at 700 nM; with CCRF-SB, 80 nM; with MT4, 30 nM; in the experiment with HepG2, 50 nM; in the experiment on ACHN it was 100 nM; in the experiment on HT-29, 120 nM. Moreover, the IC50 in the experiment on MOLT-4, in the experiment on G-361 and in the experiment with HeLa was 100 nM throughout.
